# Results from patent US20180214423A1, “PHARMACEUTICAL COMPOSITION COMPRISING RAPAMYCIN OR DERIVATIVE THEREOF, AND METHOD FOR PRODUCING THE SAME” (NIPPON KAYAKU KABUSHIKI KAISHA, priority 2015, published 2018).
# Key:
# [1] = Test Example B1: preservation stability of everolimus compositions and active pharmaceutical ingredient, residual everolimus by HPLC; format: physicochemical; conditions: light-shielded, 60° C.
# Protocol: It is to be noted that, in the analysis using liquid chromatography (HPLC) in the present test examples, the measurement was carried out under the following conditions. • Measurement column: Zorbax Eclipse XDB-C18, Rapid resolution HT, 100 mm ×4.6 mm, L8 μm • Detector: ultraviolet absorption spectrophotometer (measurement wavelength: 278 nm) • Column temperature: 45° C. • Mobile phase A: 0.1% formic acid; mobile phase B: methanol/acetonitrile=50/50 • Concentration gradient of mobile phase:
# The pharmaceutical compositions obtained by the methods of Example B1 and Comparative Examples B1 to B4 (approximately 1 g each) and the active pharmaceutical ingredient of everolimus (100 mg) were each collected in a brown sample bottle, and were then preserved under light-shielded conditions at 60° C., in a desiccator, the humidity of which had been adjusted with a saturated cobalt chloride aqueous solution (relative humidity: approximately 49%), while the bottle was uncapped.
# The residual amounts of everolimus 10 days and 14 days after initiation of the preservation test were measured by liquid chromatography (HPLC), and the residual percentages of everolimus at individual time points were then calculated. It is to be noted that the residual percentage was calculated according to the following formula. The results are shown in Table 5. • Residual percentage (%) of everolimus (peak area of everolimus measured by HPLC at each time point/weighed value of powders)/(peak area of everolimus measured by HPLC before preservation (initial)/weighed value of powders)× 100.
# [2] = cited from earlier work
Compound,decomposition reaction such as oxidation on preservation (in words) ([1]; relative humidity approximately 49%),"Residual percentage (%) of everolimus, Value on Day 10 ([1]; relative humidity approximately 49% (saturated cobalt chloride), uncapped, Day 10)","Residual percentage (%) of everolimus, Value on Day 14 ([1]; relative humidity approximately 49% (saturated cobalt chloride), uncapped, Day 14)",critical relative humidity at 25° C. [2]
CO[C@H]1C[C@@H]2CC[C@@H](C)[C@@](O)(O2)C(=O)C(=O)N2CCCC[C@H]2C(=O)O[C@H]([C@H](C)C[C@@H]2CC[C@@H](OCCO)[C@H](OC)C2)CC(=O)[C@H](C)/C=C(\C)[C@@H](O)[C@@H](OC)C(=O)[C@H](C)C[C@H](C)/C=C/C=C/C=C/1C [40-O-(2-hydroxyethyl)rapamycin],rapidly progresses,5%,2%,–
OC[C@H]1O[C@@H](O[C@H]2[C@H](O)[C@@H](O)C(O)O[C@@H]2CO)[C@H](O)[C@@H](O)[C@H]1O (stereo partly shown) [lactose],–,–,–,≥ 95%
OC[C@@H](O)[C@@H](O)[C@H](O)[C@H](O)CO [mannitol],–,–,–,≥ 95%
OC[C@@H](O)[C@@H](O)[C@H](O)[C@@H](O)CO [sorbitol],–,–,–,approximately 70%
OC[C@H]1O[C@H](O[C@H]2O[C@H](CO)[C@@H](O)[C@H](O)[C@H]2O)[C@H](O)[C@@H](O)[C@@H]1O [trehalose],–,–,–,≥ 95%
